The assay has as its target isolated TTD (UHRF1_121–286). In words: FP displacement of FITC-labeled H3K9me3(1–25) peptide from TTD. It is filed as biochemical. Conditions: FP displacement of N-terminally FITC-labeled H3K9me3(1-25), 0.04 μM peptide, 8 μM TTD, 20 mM Tris pH 8.5, 50 mM NaCl, 3% DMSO, 0.01% TX100. From the text:
We designed a fragment library containing 2,040 compounds that was initially screened against isolated TTD (UHRF1_121–286) using a fluorescence polarization (FP) assay that tracked the displacement of a N-terminally tagged H3K9me3 peptide (H3K9me3(1–25)). From this screen, eight putative TTD-binding hits were identified. […] Because of limited commercial availability of the tricyclic amine, we focused only on BPC. The binding of this compound occurs close to (or within) the Arg^296-binding pocket; we observe significant perturbation of Trp^238 and Phe^278 resonances that form part of the pocket, and in Gly^236, which is directly adjacent to it (Fig. 4A and supplemental Fig. S5). We also see chemical shift changes in non-surface exposed residues that are close to or are in contact with the groove.
For FP assays, the TTD (UHRF1_121–286) was buffered in 20 mM Tris (pH 8.5), 50 mM NaCl, 3% DMSO, and 0.01% TX100. N-terminal FITC-labeled H3K9me3(1–25) peptide was synthesized and purified by Tufts University Core Services (Boston, MA). Titrations and compound binding assays were performed in a 10-μl volume at a constant labeled peptide concentration of 0.04 μM. For compound screening and titrations, a non-saturating fixed protein concentration of 8 μM TTD was used. FP assays were performed in 384-well Axygen plates using a Synergy 4 microplate reader (BioTek). […]

`N=C(N)N1CCC(Cc2ccccc2)CC1` [BPC, 4-benzylpiperidine-1-carboximidamide]: the Kdisp was 312 µM.
